Results on seven compounds are retold here after ChEMBL document CHEMBL1201862, “PubChem BioAssay data set” (2004).

Assay [1] deals with COUP transcription factor 2 (Homo sapiens, UniProt P24468). The assay can be described thus: Luminescence-based cell-based high throughput dose response assay to identify inhibitors of COUP-TFII (NR2F2). In kind it is functional.
Assay [2] is described as follows: Dd2 parasite growth inhibition in erythrocytes – SYBR Green, dry powder samples, set 9, dose response (AID 1159568). In kind it is functional, cell-based.
The target of assay [3] is SUMO-activating enzyme (Homo sapiens, UniProt Q9UBT2). The assay can be described thus: blockers of UBC9-mediated SUMO conjugation – biochemical, AlphaScreen, SUMOylation inhibitor project, confirmation (AID 2018). In kind it is functional.
The target in assay [4] is T1, Mannose-6-phosphate isomerase (Homo sapiens, UniProt P34949).
T1 sequence (P34949 whole entry): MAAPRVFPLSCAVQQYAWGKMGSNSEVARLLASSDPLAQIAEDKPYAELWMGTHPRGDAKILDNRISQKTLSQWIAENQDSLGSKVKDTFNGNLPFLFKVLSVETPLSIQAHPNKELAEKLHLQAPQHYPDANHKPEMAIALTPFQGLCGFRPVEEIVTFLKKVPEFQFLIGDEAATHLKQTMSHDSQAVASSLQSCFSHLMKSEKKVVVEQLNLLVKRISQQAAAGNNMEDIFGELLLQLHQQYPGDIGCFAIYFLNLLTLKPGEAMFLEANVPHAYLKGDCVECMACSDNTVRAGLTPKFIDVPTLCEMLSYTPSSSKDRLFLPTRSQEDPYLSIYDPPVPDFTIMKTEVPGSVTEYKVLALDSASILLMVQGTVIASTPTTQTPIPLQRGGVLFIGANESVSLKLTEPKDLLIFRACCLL
The assay can be described thus: MPI enzyme activity inhibition – biochemical, fluorescence intensity, coupled assay, primary screen (AID 1209).

For assay [5], the target named is T1, Mannose-6-phosphate isomerase. Nature of the assay: MPI inhibition at elevated mannose 6-phosphate – biochemical, fluorescence intensity, high mannose 6-phosphate, primary screen (AID 1220).
Assay [6] deals with DNA damage-inducible transcript 3 protein (Mus musculus, UniProt P35639). In kind it is functional, Cricetulus griseus.
For assay [7], the target named is Protein Tat (Human immunodeficiency virus type 1 group M subtype B (isolate HXB2)(HIV-1), UniProt P04608). In kind it is functional.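 Further: tat binding to TAR RNA read out by fluorescence polarization.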
Assay [8] addresses NAD-dependent protein deacylase sirtuin-5, mitochondrial (Homo sapiens, UniProt Q9NXA8). Nature of the assay: sirtuin-5 deacylation blockers, concentration series – biochemical, fluorescence imaging, cherry-pick, set 5, dose response (AID 720591).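 Further: desuccinylation of succinyl peptide AMC substrate read as fluorescence after trypsin release; potency of inhibitors that lower fluorescence and may act on trypsin instead.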
Assay [9] has as its target Troponin, cardiac muscle (Homo sapiens, UniProt P19429+P45379+P63316). Nature of the assay: Fluorescence-based biochemical high throughput dose response assay for activators of the calcium sensitivity of cardiac Regulated Thin Filaments (RTF). [Related pubchem assays (depositor defined):AID493008, AID493018, AID504382, AID504383]. It counts as protein-complex assay.
For assay [10], the system named is Vero. The assay can be described thus: cells. In kind it is functional. The conditions noted are these: Chlorocebus sabaeus.
A short description of assay [11]: activation of miR-122 Renilla sensor silencing – cell-based, Huh7 psiCHECK-miR122, Renilla luciferase, cherry-picked, dose response (AID 651956).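 Further: huh7 hepatoma cells stably carrying a psiCHECK-2 miR-122 sensor plasmid; renilla luciferase signal reporting endogenous miR-122 activity after 48 h compound exposure.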 It counts as functional.
Assay [12] addresses Paired box protein Pax-8 (Homo sapiens, UniProt Q06710). The assay can be described thus: PAX8 transcriptional activity inhibition in RMG-I – RMG-I cells, luciferase, cherry-pick, dose response (AID 687027).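 Further: luciferase reporter driven by Pax8 target thyroperoxidase promoter measured by SteadyGlo luminescence.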 It counts as functional, cell-based.
A short description of assay [13]: reduced cellular PGC1a acetyl-lysine signal – cell-based, cherry-picked samples, dose response (AID 720514).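 Further: potency may reflect raised or lowered acetylation signal.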 In kind it is functional.
Assay [14] in a line: general mammalian cell viability loss – inhibitor set, cherry-pick, set 2, cytotoxicity control for miR-122 modulator project, dose response (AID 720697). In kind it is functional, cell-based.
Assay [15] in a line: general mammalian cell viability loss – activator set, cherry-pick, cytotoxicity control for miR-122 modulator project, dose response (AID 720690).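 Further: HEK293T human cells scored for general mammalian cytotoxicity.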 In kind it is functional, cell-based.
A short description of assay [16]: general cell-killing toxicity readout – plate reader, dry powder samples, cytotoxicity control for PAX8 inhibitor project, dose response (AID 743021). It counts as functional, cell-based.
For assay [17], the target named is T2, Polyadenylate-binding protein 1 (Homo sapiens, UniProt P11940). The assay can be described thus: MLLE binding blockers, Cy5 peptide tracer – biochemical, fluorescence polarization, Cy5-PAM2 peptide, secondary, miRNA deadenylation inhibitor project, dose response (AID 602260). In kind it is functional. The conditions noted are these: read-out: IC50_Mean. (In general: Fluorescence polarisation rises when a labelled molecule tumbles more slowly, as on binding a larger partner.)

The target of assay [18] is T2, Polyadenylate-binding protein 1. The assay can be described thus: MLLE domain peptide-binding blockers, IC50 – biochemical, fluorescence polarization, FITC-PAM2 peptide, dose response (AID 602259). In kind it is functional. The conditions noted are these: read-out: IC50_Mean.
Assay [19] concerns the target Major prion protein (Homo sapiens, UniProt P04156). In kind it is functional, cell-based.
A short description of assay [20]: cells.
Assay [21] in a line: Trypanosoma cruzi growth suppression in host cells – NIH3T3 host cells, beta-gal luminescence, confirmation (AID 2044).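 Further: intracellular parasites grown in NIH/3T3 mouse fibroblasts as host cells; luminescent beta-galactosidase reporter signal from transgenic T. cruzi replicating inside host cells; inhibitors lower the luminescence signal.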 It counts as functional, cell-based.
The nature of assay [22]: NIH3T3 cell viability loss – ATP luminescence, mouse fibroblasts, counter-screen, dose response (AID 2010).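 Further: cells exposed to compound for about 90 hours before reading.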 In kind it is functional, cell-based. On the technique in general: The purpose of a counterscreen is to sort out artefacts and off-target activity.
The nature of assay [23]: cells. To be noted: A549.
A short description of assay [24]: cells. To be noted: HEK293.

Activity calls are given as the source filed them.

On to `COc1ccc(C(=O)C2CCN(c3ncnc4sccc34)CC2)cc1`, for which, in [1], the IC50 is 1.77 µM (active).
In the case of `Cc1ccc(S(=O)(=O)N2CC[C@H]3[C@H](CO)Nc4ccc(-c5cccc(C(=O)N(C)C)c5)cc4[C@H]32)cc1`, in [2], the AC50 (commonly the concentration at which the activity in the assay is half-maximal) is 3.07 µM (active).
Consider `CC1=Nc2nc3c(c4c(C#N)c(N5CCCCC5)nc(c24)N1)CC(=O)N3c1ccc(C(C)C)cc1.CN(C)C=O`, for which the IC50 in [3] is 11.7 µM (active); in [4], > 50 µM (not active); in assay [5], > 50 µM (not active); in assay [7] it was > 100 µM (active). Moreover, the “Absolute IC50 (CHOP)” value in assay [6] stood at 10 µM.
As to `CCCCC[C@@H](C)N1C[C@H](COCc2ccccc2)Oc2cc(N3CCC[C@@H]3CO)ccc2S1(=O)=O`, in [8], the AC50 was > 30 µM (inactive).
For `Cn1ncc2c(ON=C(N)c3ccc(C(F)(F)F)cc3)ncnc21`, the EC50 (in general, the concentration needed to bring the measured effect to its halfway point) in assay [9] is > 71.5 µM (inactive). In addition, the CC50 (usually the concentration giving 50% cytotoxicity) in assay [10] was 8.98 µM (active). In addition, the AC50 was 20.8 µM (active) in assay [11]; 6.71 µM (active) in assay [12]; 4.71 µM (active) in [13]; 9.49 µM (active) in [14]; 14 µM (active) in assay [15]; 66.7 µM (active) in assay [16].
Regarding `O=C(CSc1nc(Cc2ccccc2)nc2ccccc12)Nc1ccc2c(c1)OCCO2`, the IC50 is > 66 µM (inactive) in [17], > 66 µM (inactive) in [18], 5.39 µM (active) in assay [19] and 45.6 µM (inactive) in [20].
`Cc1ccc2nc3c(cc(C(N)=S)c(=N)n3CCCOC(C)C)c(=O)n2c1`: the results for the EC50 in assay [21] and in assay [22] were 4.43 µM (active) and 9.45 µM (active), respectively. Moreover, the AC50 is 33.9 µM (active) in [23] and > 52 µM (inactive) in assay [24].
